# According to the supplement of paper PMC10307832:
# How the values were obtained:
# Assay in all cases: relative viability (nuclei count vs DMSO), 5 days (fraction); higher = more cells survive
# [1] = compound: COc1cc(-c2nn([C@H]3CC[C@H](N4CCN(C(C)=O)CC4)CC3)c3ncnc(N)c23)ccc1NC(=O)c1cc2ccccc2n1C + Nc1ncn([C@H]2C[C@H](O)[C@@H](CO)O2)c(=O)n1 [Decitabine] (partner 2 µM)
# Procedure, shortened: (§1)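 Relative viability divides the nuclei count in treated wells by that in vehicle wells. Lung cancer cell lines were seeded in 1536-well plates, dosed by pin tool the next day, and fixed and stained after 5 days in one step with final 0.05% Triton X-100, 1% formaldehyde and 1 ug/ml Hoechst. Dosing was a single drug or a fixed anchor-drug dose plus five library-drug doses (not always all listed) in √10 steps, and values are medians of duplicate plates imaged at 4×.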
# [2] = compound: COc1cc(-c2nn([C@H]3CC[C@H](N4CCN(C(C)=O)CC4)CC3)c3ncnc(N)c23)ccc1NC(=O)c1cc2ccccc2n1C + Cc1cc(Nc2cc(N3CCN(C)CC3)nc(Sc3ccc(NC(=O)C4CC4)cc3)n2)n[nH]1 [Tozasertib] (partner 0.1 µM)
# Procedure, shortened: as §1
# [3] = compound: COc1cc(-c2nn([C@H]3CC[C@H](N4CCN(C(C)=O)CC4)CC3)c3ncnc(N)c23)ccc1NC(=O)c1cc2ccccc2n1C + O=C(CCCCCCC(=O)Nc1ccccc1)NO [Vorinostat] (partner 1 µM)
# Procedure, shortened: as §1
# Midostaurin + Foretinib = compound: CO[C@@H]1[C@H](N(C)C(=O)c2ccccc2)C[C@H]2O[C@]1(C)n1c3ccccc3c3c4c(c5c6ccccc6n2c5c31)C(=O)NC4 [Midostaurin] + COc1cc2c(Oc3ccc(NC(=O)C4(C(=O)Nc5ccc(F)cc5)CC4)cc3F)ccnc2cc1OCCCN1CCOCC1 [Foretinib] (partner 0.25 µM)
# Procedure, shortened: as §1
# [4] = compound: COc1cc(-c2nn([C@H]3CC[C@H](N4CCN(C(C)=O)CC4)CC3)c3ncnc(N)c23)ccc1NC(=O)c1cc2ccccc2n1C + O=C(c1cc(Cc2n[nH]c(=O)c3ccccc23)ccc1F)N1CCN(C(=O)C2CC2)CC1 [Olaparib] (partner 8 µM)
# Procedure, shortened: as §1
cell line,measurement,setting,value
LK-2,relative viability,[1]; first compound 0.0128 µM,0.339
same,relative viability,[1]; first compound 0.04048 µM,0.253
same,relative viability,[1]; first compound 0.128 µM,0.288
same,relative viability,[1]; first compound 1.28 µM,0.248
same,relative viability,[2]; first compound 0.0128 µM,0.195
same,relative viability,[2]; first compound 0.04048 µM,0.155
same,relative viability,[2]; first compound 0.128 µM,0.184
same,relative viability,[2]; first compound 1.28 µM,0.165
same,relative viability,[3]; first compound 0.0128 µM,0.365
same,relative viability,[3]; first compound 0.04048 µM,0.162
same,relative viability,[3]; first compound 0.128 µM,0.288
same,relative viability,[3]; first compound 1.28 µM,0.183
same,relative viability,Midostaurin + Foretinib; first compound 0.01 µM,1.19
same,relative viability,Midostaurin + Foretinib; first compound 0.03162 µM,1.36
same,relative viability,Midostaurin + Foretinib; first compound 0.1 µM,0.955
same,relative viability,Midostaurin + Foretinib; first compound 0.3162 µM,1.13
same,relative viability,[4]; first compound 0.0128 µM,0.779
same,relative viability,[4]; first compound 0.04048 µM,0.674
same,relative viability,[4]; first compound 0.128 µM,0.6
same,relative viability,[4]; first compound 1.28 µM,0.385
NCI-H2126,relative viability,[1]; first compound 0.0128 µM,0.612
same,relative viability,[1]; first compound 0.04048 µM,0.551
same,relative viability,[1]; first compound 0.128 µM,0.608
same,relative viability,[1]; first compound 1.28 µM,0.457
same,relative viability,[2]; first compound 0.0128 µM,0.833
same,relative viability,[2]; first compound 0.04048 µM,0.946
same,relative viability,[2]; first compound 0.128 µM,0.773
same,relative viability,[2]; first compound 1.28 µM,0.638
same,relative viability,[3]; first compound 0.0128 µM,0.92
same,relative viability,[3]; first compound 0.04048 µM,0.621
same,relative viability,[3]; first compound 0.128 µM,0.658
same,relative viability,[3]; first compound 1.28 µM,0.636
same,relative viability,Midostaurin + Foretinib; first compound 0.01 µM,1.19
same,relative viability,Midostaurin + Foretinib; first compound 0.03162 µM,1.14
same,relative viability,Midostaurin + Foretinib; first compound 0.1 µM,1.04
same,relative viability,Midostaurin + Foretinib; first compound 0.3162 µM,1.15
same,relative viability,[4]; first compound 0.0128 µM,0.952
same,relative viability,[4]; first compound 0.04048 µM,0.961
same,relative viability,[4]; first compound 0.128 µM,0.656
same,relative viability,[4]; first compound 1.28 µM,0.74
NCI-H3122,relative viability,[1]; first compound 0.0128 µM,0.44
same,relative viability,[1]; first compound 0.128 µM,0.447
same,relative viability,[1]; first compound 1.28 µM,0.318
same,relative viability,[2]; first compound 0.0128 µM,0.396
same,relative viability,[2]; first compound 0.04048 µM,0.342
same,relative viability,[2]; first compound 0.128 µM,0.343
same,relative viability,[2]; first compound 1.28 µM,0.454
same,relative viability,[3]; first compound 0.0128 µM,1.49
same,relative viability,[3]; first compound 0.128 µM,0.889
same,relative viability,[3]; first compound 1.28 µM,0.861
same,relative viability,Midostaurin + Foretinib; first compound 0.01 µM,0.926
same,relative viability,Midostaurin + Foretinib; first compound 0.03162 µM,0.94
same,relative viability,Midostaurin + Foretinib; first compound 0.1 µM,0.718
same,relative viability,Midostaurin + Foretinib; first compound 0.3162 µM,0.976
same,relative viability,[4]; first compound 0.0128 µM,0.683
same,relative viability,[4]; first compound 0.128 µM,0.64
same,relative viability,[4]; first compound 1.28 µM,0.621
NCI-H1975,relative viability,[1]; first compound 0.0128 µM,0.406
same,relative viability,[1]; first compound 0.04048 µM,0.33
same,relative viability,[1]; first compound 0.128 µM,0.376
same,relative viability,[1]; first compound 1.28 µM,0.235
same,relative viability,[2]; first compound 0.0128 µM,0.868
same,relative viability,[2]; first compound 0.04048 µM,0.896
same,relative viability,[2]; first compound 0.128 µM,0.528
same,relative viability,[2]; first compound 1.28 µM,0.159
same,relative viability,[3]; first compound 0.0128 µM,0.724
same,relative viability,[3]; first compound 0.04048 µM,0.735
same,relative viability,[3]; first compound 0.128 µM,0.624
same,relative viability,[3]; first compound 1.28 µM,0.41
same,relative viability,Midostaurin + Foretinib; first compound 0.01 µM,0.925
same,relative viability,Midostaurin + Foretinib; first compound 0.03162 µM,1.01
same,relative viability,Midostaurin + Foretinib; first compound 0.1 µM,0.952
same,relative viability,Midostaurin + Foretinib; first compound 0.3162 µM,0.647
same,relative viability,[4]; first compound 0.0128 µM,0.819
same,relative viability,[4]; first compound 0.04048 µM,0.978
same,relative viability,[4]; first compound 0.128 µM,0.794
same,relative viability,[4]; first compound 1.28 µM,0.494
NCI-H1944,relative viability,[1]; first compound 0.0128 µM,0.483
same,relative viability,[1]; first compound 0.04048 µM,0.371
same,relative viability,[1]; first compound 0.128 µM,0.456
same,relative viability,[1]; first compound 1.28 µM,0.451
same,relative viability,[2]; first compound 0.0128 µM,0.265
same,relative viability,[2]; first compound 0.04048 µM,0.257
same,relative viability,[2]; first compound 0.128 µM,0.24
same,relative viability,[2]; first compound 1.28 µM,0.196
same,relative viability,[3]; first compound 0.0128 µM,0.654
same,relative viability,[3]; first compound 0.04048 µM,0.641
same,relative viability,[3]; first compound 0.128 µM,0.578
same,relative viability,[3]; first compound 1.28 µM,0.416
same,relative viability,Midostaurin + Foretinib; first compound 0.01 µM,0.893
same,relative viability,Midostaurin + Foretinib; first compound 0.03162 µM,0.899
same,relative viability,Midostaurin + Foretinib; first compound 0.1 µM,0.711
same,relative viability,Midostaurin + Foretinib; first compound 0.3162 µM,0.853
same,relative viability,[4]; first compound 0.0128 µM,0.431
same,relative viability,[4]; first compound 0.04048 µM,0.409
same,relative viability,[4]; first compound 0.128 µM,0.444
same,relative viability,[4]; first compound 1.28 µM,0.331
LU99A,relative viability,[1]; first compound 0.0128 µM,0.808
same,relative viability,[1]; first compound 0.04048 µM,0.601
same,relative viability,[1]; first compound 0.128 µM,0.949
same,relative viability,[1]; first compound 1.28 µM,0.994
same,relative viability,[2]; first compound 0.0128 µM,0.281
same,relative viability,[2]; first compound 0.04048 µM,0.28
same,relative viability,[2]; first compound 0.128 µM,0.274
same,relative viability,[2]; first compound 1.28 µM,0.252
same,relative viability,[3]; first compound 0.0128 µM,0.609
same,relative viability,[3]; first compound 0.04048 µM,0.523
same,relative viability,[3]; first compound 0.128 µM,0.426
same,relative viability,[3]; first compound 1.28 µM,0.628
same,relative viability,Midostaurin + Foretinib; first compound 0.01 µM,0.708
same,relative viability,Midostaurin + Foretinib; first compound 0.03162 µM,0.854
same,relative viability,Midostaurin + Foretinib; first compound 0.1 µM,0.695
same,relative viability,Midostaurin + Foretinib; first compound 0.3162 µM,0.783
same,relative viability,[4]; first compound 0.0128 µM,0.284
same,relative viability,[4]; first compound 0.04048 µM,0.29
same,relative viability,[4]; first compound 0.128 µM,0.286
same,relative viability,[4]; first compound 1.28 µM,0.263
SW 1573,relative viability,[1]; first compound 0.0128 µM,0.527
same,relative viability,[1]; first compound 0.04048 µM,0.446
same,relative viability,[1]; first compound 0.128 µM,0.491
same,relative viability,[1]; first compound 1.28 µM,0.366
same,relative viability,[2]; first compound 0.0128 µM,0.201
same,relative viability,[2]; first compound 0.04048 µM,0.108
same,relative viability,[2]; first compound 0.128 µM,0.175
same,relative viability,[2]; first compound 1.28 µM,0.148
same,relative viability,[3]; first compound 0.0128 µM,0.805
same,relative viability,[3]; first compound 0.04048 µM,0.735
same,relative viability,[3]; first compound 0.128 µM,0.817
same,relative viability,[3]; first compound 1.28 µM,0.723
same,relative viability,Midostaurin + Foretinib; first compound 0.01 µM,1.05
same,relative viability,Midostaurin + Foretinib; first compound 0.03162 µM,0.806
same,relative viability,Midostaurin + Foretinib; first compound 0.1 µM,1.03
same,relative viability,Midostaurin + Foretinib; first compound 0.3162 µM,1.01
same,relative viability,[4]; first compound 0.0128 µM,0.439
same,relative viability,[4]; first compound 0.04048 µM,0.414
same,relative viability,[4]; first compound 0.128 µM,0.412
same,relative viability,[4]; first compound 1.28 µM,0.393
NCI-H2347,relative viability,[1]; first compound 0.0128 µM,0.618
same,relative viability,[1]; first compound 0.04048 µM,0.612
same,relative viability,[1]; first compound 0.128 µM,0.57
same,relative viability,[1]; first compound 1.28 µM,0.639
same,relative viability,[2]; first compound 0.0128 µM,0.475
same,relative viability,[2]; first compound 0.128 µM,0.486
same,relative viability,[2]; first compound 1.28 µM,0.42
same,relative viability,[3]; first compound 0.0128 µM,0.658
same,relative viability,[3]; first compound 0.04048 µM,0.499
same,relative viability,[3]; first compound 0.128 µM,0.521
same,relative viability,[3]; first compound 1.28 µM,0.543
same,relative viability,Midostaurin + Foretinib; first compound 0.01 µM,1.2
same,relative viability,Midostaurin + Foretinib; first compound 0.03162 µM,1.13
same,relative viability,Midostaurin + Foretinib; first compound 0.1 µM,0.841
same,relative viability,Midostaurin + Foretinib; first compound 0.3162 µM,1.5
same,relative viability,[4]; first compound 0.0128 µM,0.561
same,relative viability,[4]; first compound 0.04048 µM,0.597
same,relative viability,[4]; first compound 0.128 µM,0.56
same,relative viability,[4]; first compound 1.28 µM,0.505
